Counter-ions that a name gives are not always drawn. Like-named read-outs stand apart in the source and are kept apart here.
Biological target: T1, human cannabinoid CB2 receptor (Homo sapiens, UniProt P34972)
T1 construct: expressed in transfected cells; host or cells: Saccharomyces cerevisiae strain MMY23 (cassette integrated at the ura3 locus, GPD promoter)
Test: Cannabinoid CB2 receptor agonist activity in yeast cells (FDGlu fluorescence)
Type: cell-based
Details: for Emax: read-out: efficacy value (Emax) at the cloned human cannabinoid CB2 receptor
Experimental: The cannabinoid CB2 receptor agonist activity of the compounds of formula (I) was determined in accordance with the following experimental method.
Yeast (Saccharomyces cerevisiae) cells expressing the human cannabinoid CB2 receptor were generated by integration of an expression cassette into the ura3 chromosomal locus of yeast strain MMY23. This cassette consisted of DNA sequence encoding the human CB2 receptor flanked by the yeast GPD promoter to the 5′ end of CB2 and a yeast transcriptional terminator sequence to the 3′ end of CB2. MMY23 expresses a yeast/mammalian chimeric G-protein alpha subunit in which the C-terminal 5 amino acids of Gpal are replaced with the C-terminal 5 amino acids of human Gαi3 (as described in Brown et al. (2000), Yeast 16:11-22).
Agonists were prepared as 10 mM stocks in DMSO. […] Agonist solutions in DMSO (1% final assay volume) were transferred into black, clear bottom, microtitre plates from NUNC (96- or 384-well). Cells were suspended at a density of 0.2 OD600/ml in SC media lacking histidine, uracil, tryptophan, adenine and leucine and supplemented with 10 mM 3-aminotriazole, 0.1M sodium phosphate pH 7.0, and […] fluorescein di-β-D-glucopyranoside (FDGlu). […] After incubation at 30° C. for 24 hours, fluorescence resulting from degradation of FDGlu to fluorescein due to exoglucanase, an endogenous yeast enzyme produced during agonist-stimulated cell growth, was determined using a Spectrofluor microtitre plate reader (Tecan; excitation wavelength: 485 nm; emission wavelength: 535 nm). Fluorescence was plotted against compound concentration and iteratively curve fitted using a four parameter fit to generate a concentration effect value. Efficacy (Emax) was calculated from the equation
Equieffective molar ratio (EMR) values were calculated from the equation

[1] = Emax relative to HU210, yeast expressing human CB2
[2] = yeast (Saccharomyces cerevisiae) expressing human CB2, agonist, 30° C. for 24 hours, read-out: EC50 at the cloned human cannabinoid CB2 receptor

T1 sequence (P34972 whole entry): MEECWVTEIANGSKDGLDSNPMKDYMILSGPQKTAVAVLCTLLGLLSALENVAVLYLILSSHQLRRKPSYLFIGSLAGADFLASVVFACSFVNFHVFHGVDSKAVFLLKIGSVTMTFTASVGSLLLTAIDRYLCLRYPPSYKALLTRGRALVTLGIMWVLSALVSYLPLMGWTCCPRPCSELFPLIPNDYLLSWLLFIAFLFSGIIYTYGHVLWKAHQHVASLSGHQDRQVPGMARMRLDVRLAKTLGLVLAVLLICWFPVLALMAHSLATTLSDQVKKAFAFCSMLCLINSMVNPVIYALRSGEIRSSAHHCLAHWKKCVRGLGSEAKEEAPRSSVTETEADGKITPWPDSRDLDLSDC

Row | Structure (SMILES) | Emax [1] | EC50 [2] | EC50 | Emax
1 | Clc1cccc(Nc2cc(C3CC3)c(CNC3CCC3)cn2)c1 [Example 1, (3-Chlorophenyl)-5-(cyclobutylaminomethyW cyclopropyl-pyridin-2-yl)-amine acetate] | > 50% | < 300 nM |  | 
2 | Clc1cccc(Nc2cc(C3CC3)c(CNC3CC3)cn2)c1 [Example 2, (3-Chlorophenyl)-(4-cyclopropyl-5-cyclopropylaminomethyl-pyridin-2-yl)-amineacetate] | > 50% | < 300 nM |  | 
3 | Clc1cccc(Nc2cc(C3CC3)c(CNCC3CC3)cn2)c1 [Example 3, (3-Chlorophenyl)-(4-cyclopropyl-5-[(cyclopropylmethyl-amino)-methyl]-pyridin-2-yl}-amine acetate] |  |  | < 300 nM | > 50%
4 | Clc1cccc(Nc2cc(C3CC3)c(CN3CCOCC3)cn2)c1 [Example 4, (3-Chlorophenyl)-(4-cyclopropyl-5-morpholin-4-ylmethyl-pyridin-2-yl)-aminedihydrochloride] |  |  | < 300 nM | > 50%
5 | CC(C)CNCc1cnc(Nc2cccc(Cl)c2)cc1C1CC1 [Example 5, (3-Chlorophenyl)-[4-cyclopropyl-5-(isobutylamino-methyl)-pyridin-2-yl]-amineacetate] |  |  | < 300 nM | > 50%
6 | Clc1cccc(Nc2cc(C3CC3)c(CNC3CCOCC3)cn2)c1 [Example 11, (3-Chlorophenyl)-{4-cyclopropyl-5-[(tetrahydro-pyran-4-ylamino)-methyl]-pyridin-2-yl}-amineacetate] |  | 300 to 1000 nM |  | > 50%
7 | Cc1cccc(Nc2cc(C(C)C)c(CNCC3CCC3)cn2)c1 [Example 12, {5-[(Cyclobutylmethyl-amino)methyl]-4-isopropyl-pyridin-2-yl}-m-tolyl-amine] |  |  | 300 to 1000 nM | > 50%
8 | Clc1cccc(Nc2cc(C3CC3)c(CNCC3CCC3)cn2)c1 [Example 13, (3-Chloro-phenyl)-{5-[(cyclobutylmethyl-amino)-methyl]-4-cyclopropyl-pyridin-2-yl}-amine] |  |  | < 300 nM | > 50%
9 | CC(C)c1cc(Nc2ccc(Cl)cc2Cl)ncc1CNCC1CCC1 [Example 16, {5-[(Cyclobutylmethyl-amino)-methyl]-4-isopropyl-pyridin-2-yl}-(2,4-dichloro-phenyl)-amine,compound with formic acid (1:1)] |  |  | < 300 nM | > 50%
10 | CC(C)c1cc(Nc2ccc(Cl)c(Cl)c2)ncc1CNCC1CCC1 [Example 17, {5-[(Cyclobutylmethyl-amino)-methyl]-4-isopropyl-pyridin-2-yl}-(3,4-dichloro-phenyl)-amine,compound with formic acid (1:1.2)] |  |  | < 300 nM | > 50%
11 | CC(C)c1cc(Nc2ccc(F)c(Cl)c2)ncc1CNCC1CCC1 [Example 18, (3-Chloro-4-fluoro-phenyl)-{5-[(cyclobutyhnethyl-amino)-methyl]-4-isopropyl-pyridin-2-yl}-amine,compound with formic acid (1:1.3)] | > 50% | < 300 nM |  | 
12 | CC(C)c1cc(Nc2cc(Cl)ccc2Cl)ncc1CNCC1CCC1 [Example 20, {5-[(Cyclobutylmethyl-amino)-methyl]-4-isopropyl-pyridin-2-yl}-(2,5-dichloro-phenyl)-amine,compound with formic acid (1:1)] |  |  | < 300 nM | > 50%
13 | CC(C)c1cc(Nc2cc(F)cc(F)c2)ncc1CNCC1CCC1 [Example 21, {5-[(Cyclobutylmethyl-amino)-methyl]-4-isopropyl-pyridin-2-yl}-(3,5-difluoro-phenyl)-amine,compound with formic acid (1:1.3)] | > 50% | < 300 nM |  | 
14 | CC(C)c1cc(Nc2cccc(Cl)c2)ncc1CNCC1CC1 [Example 22, (3-Chloro-phenyl)-{5-[(cyclopropylmethyl-amino)-methyl]-4-isopropyl-pyridin-2-yl}-amine, compound with formic acid(1:1.25)] |  |  | < 300 nM | > 50%
15 | CC(C)CNCc1cnc(Nc2ccc(Cl)cc2Cl)cc1C(C)C [Example 23, (2,4-Dichloro-phenyl)-[5-(isobutylamino-methyl)-4-isopropyl-pyridin-2-yl]-amine, compound withformic acid (1:1)] |  |  | < 300 nM | > 50%
16 | CC(C)c1cc(Nc2ccc(F)cc2Cl)ncc1CNCC1CCC1 [Example 24, (2-Chloro-4-fluoro-phenyl)-{5-[(cyclobutylmethyl-amino)-methyl]-4-isopropyl-pyridin-2-yl}-amine,compound with formic acid (1:1.75)] |  |  | 300 to 1000 nM | > 50%
17 | CC(C)c1cc(Nc2ccc(Cl)cc2F)ncc1CNCC1CCC1 [Example 25, (4-Chloro-2-fluoro-phenyl)-{5-[(cyclobutylmethyl-amino)-methyl]-4-isopropyl-pyridin-2-yl}-amine,compound with formic acid (1:1.67)] | > 50% | 300 to 1000 nM |  | 
18 | CC(C)c1cc(Nc2ccc(OC(F)(F)F)cc2Br)ncc1CNCC1CCC1 [Example 26, (2-Bromo-4-trifluoromethoxy-phenyl)-{5-[(cyclobutylmethyl-amino)-methyl]-4-isopropyl-pyridin-2-yl}-amine, compound with formicacid (1:1)] |  | 300 to 1000 nM |  | > 50%
19 | Cc1cc(Cl)ccc1Nc1cc(C(C)C)c(CNCC2CCC2)cn1 [Example 27, (4-Chloro-2-methyl-phenyl)-{5-[(cyclobutylmethyl-amino)-methyl)-4-isopropyl-pyridin-2-yl}-amine,compound with formic acid (1:1.33)] |  |  | 300 to 1000 nM | > 50%
20 | Cc1c(Cl)cccc1Nc1cc(C2CC2)c(CNCC2CCC2)cn1 [Example 29, (3-Chloro-2-methyl-phenyl)-{5-[(cyclobutylmethyl-amino)-methyl]-4-cyclopropyl-pyridin-2-yl}-amine,compound with formic acid (1:1.57)] | > 50% | 300 to 1000 nM |  | 
21 | CC(C)c1cc(Nc2cccc(C(F)(F)F)c2)ncc1CNCC1CC1 [Example 30, {5-[(Cyclopropylmethyl-amino)-methyl]-4-isopropyl-pyridin-2-yl}-(3-trifluoromethyl-phenyl)-amine,compound with formic acid (1:1)] |  |  | 300 to 1000 nM | > 50%
22 | CC(C)c1cc(Nc2cc(F)cc(F)c2)ncc1CNCC1CC1 [Example 31, {5-[(Cyclopropylmethyl-amino)-methyl]-4-isopropyl-pyridin-2-yl}-(3,5-difluoro-phenyl)-amine,compound with formic acid (1:1)] |  | 300 to 1000 nM |  | > 50%
23 | Cc1ccc(Nc2cc(C(C)C)c(CNCC3CC3)cn2)cc1Cl [Example 33, (3-Chloro-4-methyl-phenyl)-{5-[(cyclopropylmethyl-amino)-methyl]-4-isopropyl-pyridin-2-yl}-amine, compound with formic acid(1:1)] |  |  | 300 to 1000 nM | > 50%
24 | CC(C)c1cc(Nc2ccc(F)c(Cl)c2)ncc1CNCC1CC1 [Example 34, (3-Chloro-4-fluoro-phenyl)-{5-[(cyclopropylmethyl-amino)-methyl]-4-isopropyl-pyridin-2-yl}-amine, compound with formic acid(1:1)] |  | 300 to 1000 nM |  | > 50%
25 | CC(C)c1cc(Nc2ccc(F)c(F)c2)ncc1CNCC1CC1 [Example 37, {5-[(Cyclopropylmethyl-amino)-methyl]-4-isopropyl-pyridin-2-yl}-(3,4-difluoro-phenyl)-amine,compound with formic acid (1:1.15)] |  |  | 300 to 1000 nM | > 50%
26 | Fc1ccc(Nc2cc(C3CC3)c(CNCC3CCCC3)cn2)cc1Cl [Example 44, (3-Chloro-4-fluoro-phenyl)-{5-[(cyclopentylmethyl-amino)-methyl]-4-cyclopropyl-pyridin-2-yl}-amine, compound with formicacid (1:1.4)] | > 50% | < 300 nM |  | 
27 | CC(C)CNCc1cnc(Nc2cccc(C(F)(F)F)c2F)cc1C(C)C [Example 46, (2-Fluoro-3-trifluoromethyl-phenyl)-5-[(isobutylamino-methyl)-4-isopropyl-pyridin-2-yl]-amine,compound with formic acid (1:1.13)] | > 50% | < 300 nM |  | 
28 | CC(C)CNCc1cnc(Nc2ccc(Cl)c(Cl)c2)cc1C(C)C [Example 47, (3,4-Dichloro-phenyl)-[5-(isobutylamino-methyl)-4-isopropyl-pyridin-2-yl]-amine, compound withformic acid (1:1)] |  |  | < 300 nM | > 50%
29 | CC(C)CNCc1cnc(Nc2cccc(Br)c2)cc1C(C)C [Example 48, (3-Bromo-phenyl)-[5-(isobutylamino-methyl)-4-isopropyl-pyridin-2-yl]-amine, compound withformic acid (1:33)] | > 50% | < 300 nM |  | 
